# Source: US8278345B2, “Inhibitors of glutaminyl cyclase” (Probiodrug AG, priority 2006, dated 2012)
# Biological target: hQC (Homo sapiens, UniProt Q16769)
# Assay: Inhibitor assay for glutaminyl cyclase activity (fluorometric, H-Gln-βNA / H-Gln-AMC)
# Assay type: biochemical
# Conditions: compound from preparative synthesis, purified
# Outline: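 Ki values came from fitting progress curves to a competitive inhibition model; rapid screens used 4 mM inhibitor with substrate at KM. QC activity was read at 30 °C via auxiliary pyroglutamyl aminopeptidase releasing βNA (0.2 mM H-Gln-βNA, 0.2 M Tris pH 8.0, 20 mM EDTA) or AMC (0.05 M Tris pH 8.0, 5 mM EDTA).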
# Chain of hQC (Q16769 29-361): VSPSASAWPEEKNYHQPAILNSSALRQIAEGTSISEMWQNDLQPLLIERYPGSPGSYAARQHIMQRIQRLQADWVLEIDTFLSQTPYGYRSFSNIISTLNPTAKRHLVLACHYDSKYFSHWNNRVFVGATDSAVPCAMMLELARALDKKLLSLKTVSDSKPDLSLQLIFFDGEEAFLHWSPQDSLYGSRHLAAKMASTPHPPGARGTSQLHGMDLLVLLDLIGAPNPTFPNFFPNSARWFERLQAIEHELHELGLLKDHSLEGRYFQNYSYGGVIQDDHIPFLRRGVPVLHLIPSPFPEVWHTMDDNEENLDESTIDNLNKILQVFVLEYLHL
row,Ki [nM],Structure (SMILES)
1,29.2,"CC1=C(O)C(=O)N(c2ccc3nc[nH]c3c2)C1c1c(F)cccc1F (stereo not drawn) [Compound 473, 1-(1H-benzo[d]imidazol-6-yl)-5-(2,6-difluorophenyl)-3-hydroxy-4-methyl-1H-pyrrol-2(5H)-one]"
2,3.31,"O=C(C1=C(O)C(=O)N(c2ccc3[nH]cnc3c2)C1c1cccc(F)c1F)c1ccccc1 (stereo not drawn) [Compound 466, 1-(1H-benzo[d]imidazol-5-yl)-4-benzoyl-5-(2,3-difluorophenyl)-3-hydroxy-1H-pyrrol-2(5H)-one]"

# Same assay, conditions: compound from preparative synthesis, purified; read-out: IC50 hQC
row,IC50 [nM],Structure (SMILES)
1,214,"Cc1ccc(C2C(c3ccc(O)cc3)=C(O)C(=O)N2CCCn2ccnc2)cc1C (stereo not drawn) [Compound 158, 5-(3,4-Dimethyl-phenyl)-3-hydroxy-4-(4-hydroxy-phenyl)-1-(3-imidazol-1-yl-propyl)-1,5-dihydro-pyrrol-2-one]"
2,524,"CCCCC1C(c2ccccc2)=C(O)C(=O)N1CCCn1ccnc1 (stereo not drawn) [Compound 107, 5-Butyl-3-hydroxy-1-(3-imidazol-1-yl-propyl)-4-phenyl-1,5-dihydro-pyrrol-2-one]"
3,588,"CCCCCC1=C(O)C(=O)N(CCCn2ccnc2)C1c1cccs1 (stereo not drawn) [Compound 210, 3-Hydroxy-1-(3-imidazol-1-yl-propyl)-4-pentyl-5-thiophen-2-yl-1,5-dihydro-pyrrol-2-one]"

# Same assay, conditions: read-out: IC50
row,IC50 [nM],Structure (SMILES)
1,2560,"CC(C)CC(=O)C1=C(O)C(=O)N(c2ccc3[nH]cnc3c2)C1CCC(=O)O (stereo not drawn) [Compound 447, 3-[1-(1H-Benzoimidazol-5-yl)-4-hydroxy-3-(3-methyl-butyryl)-5-oxo-2,5-dihydro-1H-pyrrol-2-yl]-propionic acid]"
2,4450,"CC(C)(C)C(=O)C1=C(O)C(=O)N(c2ccc3[nH]cnc3c2)C1c1cc(Br)ccc1F (stereo not drawn) [Compound 396, 1-(1H-Benzoimidazol-5-yl)-5-(5-bromo-2-fluoro-phenyl)-4-(2,2-dimethyl-propionyl)-3-hydroxy-1,5-dihydro-pyrrol-2-one]"
3,259,"CC1=C(O)C(=O)N(c2ccc3nc[nH]c3c2)C1c1c(F)cccc1F (stereo not drawn) [Compound 473, 1-(1H-benzo[d]imidazol-6-yl)-5-(2,6-difluorophenyl)-3-hydroxy-4-methyl-1H-pyrrol-2(5H)-one]"
4,40,"CC(C)CC(=O)C1=C(O)C(=O)N(c2ccc3[nH]cnc3c2)C1c1c(F)c(F)cc(F)c1F (stereo not drawn) [Compound 423, 1-(1H-Benzoimidazol-5-yl)-3-hydroxy-4-(3-methyl-butyryl)-5-(2,3,5,6-tetrafluoro-phenyl)-1,5-dihydro-pyrrol-2-one]"
5,4090,"CC(C)C1=C(O)C(=O)N(c2ccc3[nH]cnc3c2)C1c1ccsc1 (stereo not drawn) [Compound 348, 1-(1H-Benzoimidazol-5-yl)-3-hydroxy-4-isopropyl-5-thiophen-3-yl-1,5-dihydro-pyrrol-2-one]"
6,4090,"O=C1C(O)=C(c2ccccc2)C(c2cc3ccccc3nc2Cl)N1c1ccc2[nH]cnc2c1 (stereo not drawn) [Compound 373, 1-(1H-Benzoimidazol-5-yl)-5-(2-chloro-quinolin-3-yl)-3-hydroxy-4-phenyl-1,5-dihydro-pyrrol-2-one]"
7,3190,"Cc1cc(C2C(C(C)C)=C(O)C(=O)N2c2ccc3[nH]cnc3c2)oc1C (stereo not drawn) [Compound 388, 1-(1H-Benzoimidazol-5-yl)-5-(4,5-dimethyl-furan-2-yl)-3-hydroxy-4-isopropyl-1,5-dihydro-pyrrol-2-one]"
8,130,"CC(C)CC(=O)C1=C(O)C(=O)N(c2ccc3[nH]cnc3c2)C1c1ccc(-c2ccccn2)cc1 (stereo not drawn) [Compound 455, 1-(1H-Benzoimidazol-5-yl)-3-hydroxy-4-(3-methyl-butyryl)-5-(4-pyridin-2-yl-phenyl)-1,5-dihydro-pyrrol-2-one]"
9,39.8,"O=C(C1=C(O)C(=O)N(c2ccc3[nH]cnc3c2)C1c1cccc(F)c1F)c1ccccc1 (stereo not drawn) [Compound 466, 1-(1H-benzo[d]imidazol-5-yl)-4-benzoyl-5-(2,3-difluorophenyl)-3-hydroxy-1H-pyrrol-2(5H)-one]"
10,1750,"CC1=C(O)C(=O)N(c2ccc3[nH]cnc3c2)C1c1cnc2ccccc2c1 (stereo not drawn) [Compound 448, 1-(1H-Benzoimidazol-5-yl)-3-hydroxy-4-methyl-5-quinolin-3-yl-1,5-dihydro-pyrrol-2-one]"
11,7420,"Cc1ccc2c(C3C(C(=O)C4CC4)=C(O)C(=O)N3c3ccc4[nH]cnc4c3)c[nH]c2c1 (stereo not drawn) [Compound 453, 1-(1H-Benzoimidazol-5-yl)-4-cyclopropanecarbonyl-3-hydroxy-5-(6-methyl-1H-indol-3-yl)-1,5-dihydro-pyrrol-2-one]"

# The remaining lines, values behind:
row,Structure (SMILES),IC50 [nM]
1,"Cc1ccc2c(C3C(c4ccc(O)cc4)=C(O)C(=O)N3CCCn3ccnc3)c[nH]c2c1 (stereo not drawn) [Compound 165, 3-Hydroxy-4-(4-hydroxy-phenyl)-1-(3-imidazol-1-yl-propyl)-5-(6-methyl-1H-indol-3-yl)-1,5-dihydro-pyrrol-2-one]",40
2,"CCCCCC1=C(O)C(=O)N(CCCn2ccnc2)C1CCC (stereo not drawn) [Compound 187, 3-Hydroxy-1-(3-imidazol-1-yl-propyl)-4-pentyl-5-propyl-1,5-dihydro-pyrrol-2-one]",40
3,"CCC/C=C/C1C(c2ccc(O)cc2)=C(O)C(=O)N1CCCn1ccnc1 (stereo not drawn) [Compound 149, 3-Hydroxy-4-(4-hydroxy-phenyl)-1-(3-imidazol-1-yl-propyl)-5-(pent-1-enyl)-1,5-dihydro-pyrrol-2-one]",1300
4,"CCCCCC1=C(O)C(=O)N(CCCn2ccnc2)C1c1ccccn1 (stereo not drawn) [Compound 208, 3-Hydroxy-1-(3-imidazol-1-yl-propyl)-4-pentyl-5-pyridin-2-yl-1,5-dihydro-pyrrol-2-one]",400
5,"O=C1C(O)=C(c2ccc(O)cc2)C(c2c[nH]c3ccccc23)N1CCCn1ccnc1 (stereo not drawn) [Compound 167, 3-Hydroxy-4-(4-hydroxy-phenyl)-1-(3-imidazol-1-yl-propyl)-5-(1H-indol-3-yl)-1,5-dihydro-pyrrol-2-one]",40
6,"CCC1=C(O)C(=O)N(CCCn2ccnc2)C1c1cc(Cl)cc(Cl)c1O (stereo not drawn) [Compound 220, 5-(3,5-Dichloro-2-hydroxy-phenyl)-4-ethyl-3-hydroxy-1-(3-imidazol-1-yl-propyl)-1,5-dihydro-pyrrol-2-one]",2200
7,"Cc1ccc(C2C(c3ccc(O)cc3)=C(O)C(=O)N2CCCn2ccnc2)cc1C (stereo not drawn) [Compound 158, 5-(3,4-Dimethyl-phenyl)-3-hydroxy-4-(4-hydroxy-phenyl)-1-(3-imidazol-1-yl-propyl)-1,5-dihydro-pyrrol-2-one]",40
8,"CC1=C(O)C(=O)N(CCCn2ccnc2)C1/C=C/C(C)C (stereo not drawn) [Compound 24, 3-Hydroxy-1-(3-imidazol-1-yl-propyl)-4-methyl-5-(3-methyl-but-1-enyl)-1,5-dihydro-pyrrol-2-one]",5800
9,"O=C1C(O)=C(c2ccccc2)C(c2c(O)ccc3ccccc23)N1CCCn1ccnc1 (stereo not drawn) [Compound 100, 3-Hydroxy-5-(2-hydroxy-naphthalen-1-yl)-1-(3-imidazol-1-yl-propyl)-4-phenyl-1,5-dihydro-pyrrol-2-one]",400
10,"CCC1=C(O)C(=O)N(CCCn2ccnc2)C1C1CC1 (stereo not drawn) [Compound 246, 5-Cyclopropyl-4-ethyl-3-hydroxy-1-(3-imidazol-1-yl-propyl)-1,5-dihydro-pyrrol-2-one]",1300
11,"CCC1=C(O)C(=O)N(c2ccc3[nH]cnc3c2)C1c1ccnc2ccccc12 (stereo not drawn) [Compound 302, 1-(1H-Benzoimidazol-5-yl)-4-ethyl-3-hydroxy-5-quinolin-4-yl-1,5-dihydro-pyrrol-2-one]",2920
12,"CCCCC1C(c2ccccc2)=C(O)C(=O)N1CCCn1ccnc1 (stereo not drawn) [Compound 107, 5-Butyl-3-hydroxy-1-(3-imidazol-1-yl-propyl)-4-phenyl-1,5-dihydro-pyrrol-2-one]",40
13,"CCC1=C(O)C(=O)N(CCCn2ccnc2)C1/C=C/C(C)C (stereo not drawn) [Compound 226, 4-Ethyl-3-hydroxy-1-(3-imidazol-1-yl-propyl)-5-(3-methyl-but-1-enyl)-1,5-dihydro-pyrrol-2-one]",3100
14,"CCCCCC1=C(O)C(=O)N(CCCn2ccnc2)C1C1CCC=CO1 (stereo not drawn) [Compound 200, 5-(3,4-Dihydro-2H-pyran-2-yl)-3-hydroxy-1-(3-imidazol-1-yl-propyl)-4-pentyl-1,5-dihydro-pyrrol-2-one]",40
15,"CCCCCC1=C(O)C(=O)N(CCCn2ccnc2)C1c1cccs1 (stereo not drawn) [Compound 210, 3-Hydroxy-1-(3-imidazol-1-yl-propyl)-4-pentyl-5-thiophen-2-yl-1,5-dihydro-pyrrol-2-one]",40
16,"O=C1C(O)=C(c2ccc(O)cc2)C(c2coc3ccccc3c2=O)N1c1ccc2[nH]cnc2c1 (stereo not drawn) [Compound 286, 1-(1H-Benzoimidazol-5-yl)-3-hydroxy-4-(4-hydroxy-phenyl)-5-(4-oxo-4H-chromen-3-yl)-1,5-dihydro-pyrrol-2-one]",3550
17,"CCCC1=C(O)C(=O)N(c2ccc3[nH]cnc3c2)C1c1ccc(C(=O)O)o1 (stereo not drawn) [Compound 292, 5-[1-(1H-Benzoimidazol-5-yl)-4-hydroxy-5-oxo-3-propyl-2,5-dihydro-1H-pyrrol-2-yl]-furan-2-carboxylic acid]",9940
18,"CCCCCC1=C(O)C(=O)N(CCCn2ccnc2)C1C(O)CO (stereo not drawn) [Compound 189, 5-(1,2-Dihydroxy-ethyl)-3-hydroxy-1-(3-imidazol-1-yl-propyl)-4-pentyl-1,5-dihydro-pyrrol-2-one]",400
19,"CCC1=C(O)C(=O)N(CCCn2ccnc2)C1c1cccc(O)c1 (stereo not drawn) [Compound 252, 4-Ethyl-3-hydroxy-5-(3-hydroxy-phenyl)-1-(3-imidazol-1-yl-propyl)-1,5-dihydro-pyrrol-2-one]",400
20,"O=C(C1=C(O)C(=O)N(c2ccc3[nH]cnc3c2)C1c1ccc(CO)o1)c1ccsc1 (stereo not drawn) [Compound 263, 1-(1H-Benzoimidazol-5-yl)-3-hydroxy-5-(5-hydroxymethyl-furan-2-yl)-4-(thiophene-3-carbonyl)-1,5-dihydro-pyrrol-2-one]",2020
21,"O=C1C(O)=C(c2ccc(O)cc2)C(c2ccccc2)N1CCCn1ccnc1 (stereo not drawn) [Compound 162, 3-Hydroxy-4-(4-hydroxy-phenyl)-1-(3-imidazol-1-yl-propyl)-5-phenyl-1,5-dihydro-pyrrol-2-one]",40
22,"CC1C(c2ccc(O)cc2)=C(O)C(=O)N1CCCn1ccnc1 (stereo not drawn) [Compound 160, 3-Hydroxy-4-(4-hydroxy-phenyl)-1-(3-imidazol-1-yl-propyl)-5-methyl-1,5-dihydro-pyrrol-2-one]",400
23,"CCC1=C(O)C(=O)N(CCCn2ccnc2)C1c1ccc(C)c(C)c1 (stereo not drawn) [Compound 231, 5-(3,4-Dimethyl-phenyl)-4-ethyl-3-hydroxy-1-(3-imidazol-1-yl-propyl)-1,5-dihydro-pyrrol-2-one]",400
24,"CCC1=C(O)C(=O)N(CCCn2ccnc2)C1c1ccc(C)o1 (stereo not drawn) [Compound 227, 4-Ethyl-3-hydroxy-1-(3-imidazol-1-yl-propyl)-5-(5-methyl-furan-2-yl)-1,5-dihydro-pyrrol-2-one]",2200
25,"O=C1C(O)=C(c2ccc(O)cc2)C(c2cc[nH]n2)N1CCCn1ccnc1 (stereo not drawn) [Compound 151, 3-Hydroxy-4-(4-hydroxy-phenyl)-1-(3-imidazol-1-yl-propyl)-5-(1H-pyrazol-3-yl)-1,5-dihydro-pyrrol-2-one]",40
26,"CCC1=C(O)C(=O)N(CCCn2ccnc2)C1c1ccccc1 (stereo not drawn) [Compound 236, 4-Ethyl-3-hydroxy-1-(3-imidazol-1-yl-propyl)-5-phenyl-1,5-dihydro-pyrrol-2-one]",1300
